In ChEMBL document CHEMBL3301562, “MMV Box screening against Plasmodium falciparum protein kinases and aminoacyl tRNA synthetases”:

How the values were obtained:
Assay type in all cases: functional
[1] = target: T1, Cdk-related protein kinase 6 (Plasmodium falciparum, UniProt O77239); test: Final concentrations were 1.5 uM ATP, 5 mM MnCl2, and 15 ug/ml PK6 in a buffer of 100 mM Tris-HCl (pH 7.5). 50 ug/mL MBP was provided as the substrate; 10 uM staurosporine was used as a control inhibitor. Incubation time was 3 hours and 40 minutes.The catalytic activity of each kinase was considered proportional to ATP consumed, as determined from measurements of residual [ATP] with the luciferase-based reagent Kinase-Glo (Promega) following incubation. Luminescence (proportional to residual [ATP]) was measured on the plate readers FLx800 (BioTek Instruments, Winooski, VT, USA) and MicroBeta2.
T1 sequence (O77239 whole entry): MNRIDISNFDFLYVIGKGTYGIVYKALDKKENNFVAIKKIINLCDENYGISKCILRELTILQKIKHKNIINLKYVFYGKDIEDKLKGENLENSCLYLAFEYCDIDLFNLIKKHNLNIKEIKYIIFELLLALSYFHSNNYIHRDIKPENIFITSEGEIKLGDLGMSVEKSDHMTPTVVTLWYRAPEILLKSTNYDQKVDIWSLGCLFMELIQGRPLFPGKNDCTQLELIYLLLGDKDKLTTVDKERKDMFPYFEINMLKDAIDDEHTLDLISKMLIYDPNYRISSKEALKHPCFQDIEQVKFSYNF

[2] = target: T2, Calcium-dependent protein kinase 4 (Plasmodium falciparum (isolate 3D7), UniProt Q8IBS5); test: MMV: CDPK4 Protein kinase inhibition assay using recombinant PfCDPK4, syntide2 peptide substrate, ATP and KinaseGlo to measure % inhibition at 1 uM MMV box compound.
T2 sequence (Q8IBS5 whole entry): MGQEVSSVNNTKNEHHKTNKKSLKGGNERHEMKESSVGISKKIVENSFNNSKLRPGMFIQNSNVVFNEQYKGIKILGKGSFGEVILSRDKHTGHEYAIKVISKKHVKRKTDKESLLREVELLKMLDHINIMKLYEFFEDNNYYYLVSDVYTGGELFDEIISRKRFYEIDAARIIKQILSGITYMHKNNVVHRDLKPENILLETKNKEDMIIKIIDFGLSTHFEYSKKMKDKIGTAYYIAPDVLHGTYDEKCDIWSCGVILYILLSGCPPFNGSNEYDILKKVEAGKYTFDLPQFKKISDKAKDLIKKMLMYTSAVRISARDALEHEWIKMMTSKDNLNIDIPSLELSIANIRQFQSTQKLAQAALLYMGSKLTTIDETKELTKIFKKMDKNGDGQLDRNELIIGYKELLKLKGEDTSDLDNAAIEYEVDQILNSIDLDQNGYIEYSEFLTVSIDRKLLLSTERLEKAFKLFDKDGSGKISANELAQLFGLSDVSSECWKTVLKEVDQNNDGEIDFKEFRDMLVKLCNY

Proline--tRNA ligase = target: T3, Proline--tRNA ligase (Plasmodium falciparum (isolate 3D7), UniProt Q8I5R7); test: MMV: ProRS recombinant Plasmodium falciparum Prolyl-tRNA-synthetase, assay with yeast tRNA, ATP, and proline and 3 uM MMV malaria box compound, assay read out with kinase glo as % inhibition.
T3 sequence (Q8I5R7 whole entry): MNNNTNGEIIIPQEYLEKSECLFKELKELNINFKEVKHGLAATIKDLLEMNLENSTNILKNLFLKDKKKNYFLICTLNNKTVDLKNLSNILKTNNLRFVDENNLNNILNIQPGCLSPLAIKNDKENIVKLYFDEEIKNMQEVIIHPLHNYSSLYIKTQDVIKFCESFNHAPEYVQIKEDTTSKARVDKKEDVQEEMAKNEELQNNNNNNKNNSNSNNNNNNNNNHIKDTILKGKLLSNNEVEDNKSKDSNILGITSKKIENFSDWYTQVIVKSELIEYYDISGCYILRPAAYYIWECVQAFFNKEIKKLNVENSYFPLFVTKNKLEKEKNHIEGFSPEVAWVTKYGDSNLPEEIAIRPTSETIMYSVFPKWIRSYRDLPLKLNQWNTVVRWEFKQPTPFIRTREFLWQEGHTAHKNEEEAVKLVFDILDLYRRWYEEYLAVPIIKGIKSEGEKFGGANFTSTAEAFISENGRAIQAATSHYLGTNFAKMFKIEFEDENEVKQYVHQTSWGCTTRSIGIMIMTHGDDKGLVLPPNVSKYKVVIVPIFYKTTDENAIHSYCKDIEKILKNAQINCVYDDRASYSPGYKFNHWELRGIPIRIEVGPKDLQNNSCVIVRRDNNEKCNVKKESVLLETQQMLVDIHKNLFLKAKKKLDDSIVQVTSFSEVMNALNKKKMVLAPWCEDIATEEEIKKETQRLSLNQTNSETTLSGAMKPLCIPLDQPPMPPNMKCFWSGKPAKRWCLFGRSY

[3] = target: T4, Putative uncharacterized protein pk7 (Plasmodium falciparum, UniProt O96214); test: Final concentrations were 1 uM ATP, 2 mM DTT, 20 mM MgCl2, 2 mM MnCl2, 0.01% BSA, and 6 ug/ml PK7, in a buffer of 20 mM Tris-HCl (pH 7.5). The enzyme itself was the only substrate present (since autophosphorylation occurs); 100 uM 1NA-PP1 was used as a control inhibitor. Incubation time was 3 hours.
T4 sequence (O96214 whole entry): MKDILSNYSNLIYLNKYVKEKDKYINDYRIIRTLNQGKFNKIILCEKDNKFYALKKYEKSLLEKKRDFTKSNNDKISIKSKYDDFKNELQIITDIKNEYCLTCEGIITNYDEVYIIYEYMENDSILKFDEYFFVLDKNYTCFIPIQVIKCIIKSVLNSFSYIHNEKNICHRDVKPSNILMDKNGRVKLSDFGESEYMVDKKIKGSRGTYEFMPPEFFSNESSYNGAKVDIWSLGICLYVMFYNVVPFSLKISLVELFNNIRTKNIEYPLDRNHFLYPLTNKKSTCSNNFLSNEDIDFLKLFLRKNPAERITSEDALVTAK

[4] = target: Calcium-dependent protein kinase 1 (Plasmodium falciparum, UniProt P62344); test: MMV: CDPK1 Protein kinase inhibition assay using recombinant PfCDPK1, syntide 2 peptide substrate, ATP and KinaseGlo to measure % inhibition at 1 uM MMV box compound.
Sequence of Calcium-dependent protein kinase 1 (P62344 whole entry): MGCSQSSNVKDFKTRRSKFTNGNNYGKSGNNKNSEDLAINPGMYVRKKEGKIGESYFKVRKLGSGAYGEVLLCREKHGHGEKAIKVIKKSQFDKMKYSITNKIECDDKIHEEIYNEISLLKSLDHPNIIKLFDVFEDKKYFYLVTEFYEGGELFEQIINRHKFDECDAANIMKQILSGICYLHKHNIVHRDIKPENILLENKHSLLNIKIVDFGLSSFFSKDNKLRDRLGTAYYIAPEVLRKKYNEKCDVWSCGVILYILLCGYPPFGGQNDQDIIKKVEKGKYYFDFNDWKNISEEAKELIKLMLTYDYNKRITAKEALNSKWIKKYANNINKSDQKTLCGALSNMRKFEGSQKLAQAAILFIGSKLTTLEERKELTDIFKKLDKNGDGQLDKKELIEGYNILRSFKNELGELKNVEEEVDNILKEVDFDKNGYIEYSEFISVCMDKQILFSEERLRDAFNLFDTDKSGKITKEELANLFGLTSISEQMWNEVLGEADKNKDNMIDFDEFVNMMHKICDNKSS

[5] = target: T5, Mitogen-activated protein kinase (Plasmodium falciparum, UniProt Q25917); test: Final concentrations were 1 uM ATP, 0.5 mM DTT, 1 mM MgCl2, 0.5 mg/mL BSA, and 10 ug/ml MAP2 in a buffer of 50 mM HEPES (pH 7.0). 0.5 mg/mL histone III-S served as the substrate (13); 100 uM AMP-PNP, an ATP analog, was used as a control inhibitor. Incubation time was 4 hours.
T5 sequence (Q25917 whole entry): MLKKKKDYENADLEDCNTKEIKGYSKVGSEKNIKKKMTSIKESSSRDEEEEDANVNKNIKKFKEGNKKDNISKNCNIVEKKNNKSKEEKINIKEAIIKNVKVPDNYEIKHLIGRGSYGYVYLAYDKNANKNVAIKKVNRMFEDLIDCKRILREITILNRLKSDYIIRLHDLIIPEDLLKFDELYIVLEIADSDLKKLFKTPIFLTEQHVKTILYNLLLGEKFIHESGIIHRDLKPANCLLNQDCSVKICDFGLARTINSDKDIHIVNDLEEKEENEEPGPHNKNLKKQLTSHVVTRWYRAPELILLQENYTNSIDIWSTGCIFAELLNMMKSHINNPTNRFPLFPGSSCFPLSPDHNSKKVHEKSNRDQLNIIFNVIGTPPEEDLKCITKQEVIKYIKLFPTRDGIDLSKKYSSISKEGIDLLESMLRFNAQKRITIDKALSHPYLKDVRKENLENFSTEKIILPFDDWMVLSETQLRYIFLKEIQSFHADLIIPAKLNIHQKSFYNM

Lysine--tRNA ligase = Lysine--tRNA ligase (Plasmodium falciparum (isolate 3D7), UniProt Q8IDJ8); test: MMV: KRS recombinant Plasmodium falciparum Lysyl-tRNA-synthetase, assay with yeast tRNA, ATP, and lysine and 3 uM MMV malaria box compound, assay read out with kinase glo as % inhibition.
Sequence of Lysine--tRNA ligase (Q8IDJ8 whole entry): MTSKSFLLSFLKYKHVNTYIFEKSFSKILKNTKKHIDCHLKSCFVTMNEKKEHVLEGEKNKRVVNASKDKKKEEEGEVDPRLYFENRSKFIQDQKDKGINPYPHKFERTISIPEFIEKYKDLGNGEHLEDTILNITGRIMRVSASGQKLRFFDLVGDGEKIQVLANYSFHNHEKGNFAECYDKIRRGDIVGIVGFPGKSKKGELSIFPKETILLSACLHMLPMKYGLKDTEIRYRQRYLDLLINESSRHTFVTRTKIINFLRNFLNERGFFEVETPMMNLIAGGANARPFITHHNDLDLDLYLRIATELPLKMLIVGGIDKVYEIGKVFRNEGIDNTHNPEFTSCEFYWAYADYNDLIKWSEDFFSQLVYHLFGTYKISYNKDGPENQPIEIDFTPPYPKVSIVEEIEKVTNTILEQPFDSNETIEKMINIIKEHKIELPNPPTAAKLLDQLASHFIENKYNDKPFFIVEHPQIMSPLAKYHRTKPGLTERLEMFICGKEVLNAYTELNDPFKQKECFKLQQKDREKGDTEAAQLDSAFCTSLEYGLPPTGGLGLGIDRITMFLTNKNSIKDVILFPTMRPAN

Row | Structure (SMILES) | IC50 [1] | IC50 [2] | IC50 (Proline--tRNA ligase) | IC50 [3] | IC50 [4] | IC50 [5] | IC50 (Lysine--tRNA ligase)
1 | OCCNc1nc(Nc2ccc(Cl)c(Cl)c2)nc2ccccc12 | > 1000 nM | > 1000 nM | > 2500 nM | > 1000 nM | > 1000 nM | > 1000 nM | > 2500 nM
2 | CCc1ccc(CNCC(O)c2ccccc2)cc1 (stereo not given) | > 1000 nM | > 1000 nM | > 2500 nM | > 1000 nM | > 1000 nM | > 1000 nM | > 2500 nM
3 | Nc1ccn([C@@H]2O[C@H](CO)[C@@H](O)[C@H]2O)c(=O)n1 [CYTIDINE] | > 1000 nM | > 1000 nM | > 2500 nM | > 1000 nM | > 1000 nM | > 1000 nM | > 2500 nM
4 | O=C(Nc1cccc(C2=NCCN2)c1)Nc1cccc(C2=NCCN2)c1 [IMIDOCARB] | > 1000 nM | > 1000 nM | > 2500 nM | > 1000 nM | > 1000 nM | > 1000 nM | > 2500 nM
5 | CN(C)c1ccc(C(O)(c2ccc(N(C)C)cc2)c2ccc(N(C)C)cc2)cc1 [METHYLROSANILINE] | > 1000 nM | > 1000 nM | > 2500 nM | > 1000 nM | > 1000 nM | > 1000 nM | > 2500 nM
